# Literature values in patent US9782454B2 (LONGEVITY BIOTECH, INC., priority 2010, dated 2017).
# Non-standard residues stand in square brackets, D forms with d. No end group written: not given here. dPhe(4-Cl) = N[C@H](Cc1ccc(Cl)cc1)C(=O)O
# Columns and labels:
# [1] = target: 14.3.3 proteins; conditions: read-out: KD, antagonist of 14.3.3 proteins; cited from earlier work
# [2] = target: neurotensin receptors; conditions: read-out: IC50 for inhibition of {Trp11}-NT binding to rat brain receptors; cited from earlier work
# [3] = target: mouse CRF2β (Mus musculus, UniProt Q60748); conditions: read-out: Kd for binding to mouse CRF2β; cited from earlier work
# Sequence of mouse CRF2β (Q60748 1-431 isoform Q60748-2): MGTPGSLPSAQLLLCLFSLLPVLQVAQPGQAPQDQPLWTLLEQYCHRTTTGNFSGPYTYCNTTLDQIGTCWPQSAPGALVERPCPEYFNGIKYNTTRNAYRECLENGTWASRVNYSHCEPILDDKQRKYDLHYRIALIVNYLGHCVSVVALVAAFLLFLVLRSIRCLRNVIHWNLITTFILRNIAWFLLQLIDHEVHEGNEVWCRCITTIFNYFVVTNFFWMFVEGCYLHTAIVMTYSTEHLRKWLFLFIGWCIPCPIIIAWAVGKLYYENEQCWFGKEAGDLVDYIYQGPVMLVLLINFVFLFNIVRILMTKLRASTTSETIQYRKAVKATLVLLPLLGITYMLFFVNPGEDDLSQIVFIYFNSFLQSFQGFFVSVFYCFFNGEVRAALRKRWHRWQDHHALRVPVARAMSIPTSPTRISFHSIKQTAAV
# [4] = target: T1, mCRF2β (Mus musculus, UniProt Q60748); conditions: cited from earlier work
# T1 construct: expressed in transfected cells; host or cells: HEK-mCRF2β cells (value quoted from the literature)
# T1 sequence (Q60748 1-431 isoform Q60748-2): as above
# [5] = target: T2, rat CRF1 receptors (Rattus norvegicus, UniProt P35353); conditions: read-out: Kd for binding to rat CRF1 receptors; cited from earlier work
# T2 sequence (P35353 24-415): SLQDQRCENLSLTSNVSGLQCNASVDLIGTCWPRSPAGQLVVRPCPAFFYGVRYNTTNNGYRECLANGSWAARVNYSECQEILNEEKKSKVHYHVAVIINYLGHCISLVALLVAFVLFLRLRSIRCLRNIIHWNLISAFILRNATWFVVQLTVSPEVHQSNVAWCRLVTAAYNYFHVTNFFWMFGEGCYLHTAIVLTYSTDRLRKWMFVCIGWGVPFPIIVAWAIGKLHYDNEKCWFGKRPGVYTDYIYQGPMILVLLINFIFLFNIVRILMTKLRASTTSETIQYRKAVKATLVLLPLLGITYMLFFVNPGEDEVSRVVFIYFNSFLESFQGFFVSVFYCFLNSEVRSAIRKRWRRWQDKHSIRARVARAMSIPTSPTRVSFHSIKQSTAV
# [6] = target: T3, GRF receptors (Homo sapiens, UniProt Q02643); conditions: cited from earlier work
# T3 sequence (Q02643 23-423): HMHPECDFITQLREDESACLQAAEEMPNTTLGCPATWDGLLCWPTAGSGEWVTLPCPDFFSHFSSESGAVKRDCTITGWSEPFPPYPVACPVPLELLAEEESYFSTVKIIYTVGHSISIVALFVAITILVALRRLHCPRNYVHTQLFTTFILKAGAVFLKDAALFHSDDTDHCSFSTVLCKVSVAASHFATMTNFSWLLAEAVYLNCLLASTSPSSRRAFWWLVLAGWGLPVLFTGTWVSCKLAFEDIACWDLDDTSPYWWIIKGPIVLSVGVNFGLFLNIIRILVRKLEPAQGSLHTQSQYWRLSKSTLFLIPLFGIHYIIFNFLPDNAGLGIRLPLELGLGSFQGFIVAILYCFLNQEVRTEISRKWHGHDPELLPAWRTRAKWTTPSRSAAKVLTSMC
# [7] = target: glucagon receptors (Homo sapiens, UniProt P47871); conditions: cited from earlier work
# Sequence of glucagon receptors (P47871 26-477): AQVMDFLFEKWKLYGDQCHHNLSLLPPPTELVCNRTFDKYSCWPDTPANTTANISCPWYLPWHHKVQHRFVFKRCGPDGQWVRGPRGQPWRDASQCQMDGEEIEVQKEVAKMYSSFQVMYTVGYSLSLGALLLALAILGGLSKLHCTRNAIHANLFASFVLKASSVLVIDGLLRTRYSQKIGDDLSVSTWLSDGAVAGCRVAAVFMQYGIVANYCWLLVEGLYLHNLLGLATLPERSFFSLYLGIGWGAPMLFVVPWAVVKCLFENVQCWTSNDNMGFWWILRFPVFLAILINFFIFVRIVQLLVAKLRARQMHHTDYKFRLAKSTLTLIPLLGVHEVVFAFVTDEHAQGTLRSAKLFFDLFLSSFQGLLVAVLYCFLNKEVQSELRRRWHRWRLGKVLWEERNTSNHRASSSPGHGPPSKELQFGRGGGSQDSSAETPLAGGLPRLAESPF
# [8] = target: secretin receptors (Homo sapiens, UniProt P47872); conditions: cited from earlier work
# Sequence of secretin receptors (P47872 23-440): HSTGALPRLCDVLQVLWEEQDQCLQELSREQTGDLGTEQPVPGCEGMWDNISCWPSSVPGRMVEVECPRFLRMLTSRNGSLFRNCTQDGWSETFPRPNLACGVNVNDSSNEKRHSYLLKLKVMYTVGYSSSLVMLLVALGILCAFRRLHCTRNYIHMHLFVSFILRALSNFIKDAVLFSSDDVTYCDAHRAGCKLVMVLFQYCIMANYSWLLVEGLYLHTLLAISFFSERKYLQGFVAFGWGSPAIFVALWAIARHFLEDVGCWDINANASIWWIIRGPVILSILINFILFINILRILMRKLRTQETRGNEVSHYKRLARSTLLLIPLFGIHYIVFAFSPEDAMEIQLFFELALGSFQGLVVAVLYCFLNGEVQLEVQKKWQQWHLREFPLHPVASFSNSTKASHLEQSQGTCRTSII
# [9] = target: vasoactive intestinal peptide (VIP) receptor; conditions: read-out: IC50, selective VIP antagonist; cited from earlier work
# [10] = target: T4, neurotensin receptor (Mus musculus, UniProt O88319); conditions: read-out: IC50 for inhibition of {125I}-NT binding to neonatal mouse brain; cited from earlier work
# T4 construct: from tissue; host or cells: neonatal mouse brain (value quoted from the literature)
# T4 sequence (O88319 whole entry): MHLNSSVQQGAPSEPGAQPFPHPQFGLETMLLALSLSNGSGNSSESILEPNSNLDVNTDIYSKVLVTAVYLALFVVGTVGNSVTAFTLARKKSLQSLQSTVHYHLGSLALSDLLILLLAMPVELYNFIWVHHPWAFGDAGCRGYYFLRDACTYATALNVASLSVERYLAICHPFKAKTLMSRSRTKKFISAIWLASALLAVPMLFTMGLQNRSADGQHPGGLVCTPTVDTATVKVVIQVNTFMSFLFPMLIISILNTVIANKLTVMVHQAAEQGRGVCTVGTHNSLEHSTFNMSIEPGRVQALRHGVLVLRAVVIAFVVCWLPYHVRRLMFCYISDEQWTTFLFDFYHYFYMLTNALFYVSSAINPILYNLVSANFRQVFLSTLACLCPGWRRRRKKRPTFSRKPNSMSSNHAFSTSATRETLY
# [11] = tested on: guinea pig ileum; conditions: read-out: EC50 for contraction of guinea pig ileum; cited from earlier work
substance,measurement,setting,value
R18 (RYVVLPRPVCFEKGMNYTVR; Peptide F9) [Compound R18],Kd,[1],~80 nM
"Neuromedin N (rat, mouse, porcine, canine) (KIPYIL; Neuromedin N; UniProt P20068 142-147, looked up)",IC50,[2],16.7 nM
Antisauvagine-30,Kd,[3],1.4 nM
same,"pA2, inhibition of sauvagine-stimulated cAMP accumulation in HEK-mCRF2β cells",[4],sauvagine-stimulated cAMP accumulation in HEK-mCRF2β cells (pA2 = 8.49). Prevents stress-
same,Kd,[5],154 nM
"{D-p-C1-Phe6,Leu17}-VIP ([dPhe(4-Cl)]TDNYTRLRKQMAVKKYLNSILN-NH2)",activity on GRF receptors,[6],no activity
same,activity on glucagon receptors,[7],no activity
same,activity on secretin receptors,[8],no activity
same,IC50,[9],126 nM
JMV 449 (IARRHPYFL; Kinetensin),IC50,[10],0.15 nM
same,EC50,[11],1.9 nM
